Experimental data reported in patent US12371464B2, “Polypeptides and uses thereof” (MEDIMMUNE LIMITED, priority 2020, dated 2025).
Numbered stars: 1 amine (or outer) side, 2 acyl side, 3 side chain; on linkers, the order of the positions; unused ones are H or OH. Bridge positions count the residues as written; N and C are the ends. Square brackets hold non-standard residues; d marks the D form. Side chains are listed from the residue outwards. Peptide text beside a SMILES is read from it. * marks the point of attachment. C20 diacid = O=C(O)CCCCCCCCCCCCCCCCCCC(=O)*; C18 diacid = O=C(O)CCCCCCCCCCCCCCCCC(=O)*; γGlu = O=C(O)[C@H](CCC(=O)[*:2])N[*:1]; αMeF = C[C@](N)(Cc1ccccc1)C(=O)O; Dab = NCC[C@H](N)C(=O)O; Aib = CC(C)(N)C(=O)O

How the values were obtained:
[1] = molecular target: T1, human calcitonin receptor (hCTR) (Homo sapiens, UniProt P30988); assay: cAMP production in 1321N1 cells with stable recombinant expression of human calcitonin receptor (hCTR); type: cell-based; details: 1321N1 cells expressing human calcitonin receptor
T1 construct: expressed in transfected cells
T1 sequence (P30988 25-474): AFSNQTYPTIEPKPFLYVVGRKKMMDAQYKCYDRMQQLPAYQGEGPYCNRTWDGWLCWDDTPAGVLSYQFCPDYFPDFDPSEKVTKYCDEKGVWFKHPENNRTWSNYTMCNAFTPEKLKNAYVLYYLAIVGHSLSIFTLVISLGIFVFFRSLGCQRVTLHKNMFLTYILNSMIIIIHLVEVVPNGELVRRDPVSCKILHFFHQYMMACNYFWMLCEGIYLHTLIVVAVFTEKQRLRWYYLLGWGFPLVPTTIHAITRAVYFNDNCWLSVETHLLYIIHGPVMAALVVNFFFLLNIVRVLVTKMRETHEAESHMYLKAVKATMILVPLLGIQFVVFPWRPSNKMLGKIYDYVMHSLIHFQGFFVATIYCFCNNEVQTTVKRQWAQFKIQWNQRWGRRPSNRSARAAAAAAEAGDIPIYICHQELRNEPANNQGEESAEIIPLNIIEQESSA
Protocol: (§1) The functional activities of lipidated pramlintide analogue peptides, such as cAMP production, were tested in 1321N1 cell line with stable recombinant expression of human calcitonin receptor (hCTR) or human amylin receptor (calcitonin receptor co-expressed with receptor activity modifying protein, RAMP3) (hAMYR3) or HEK cells with stable recombinant expression of rat calcitonin receptor (rat CTR) or rat amylin receptor (calcitonin receptor co-expressed with receptor activity modifying protein, RAMP3) (Rat AMYR3).
(§2) Cryopreserved cell stock was thawed rapidly in a water-bath, suspended in assay buffer (0.1% BSA (Sigma #A3059) in HBSS (Sigma #H8264) with 25 mM HEPES, pH 7.4 and containing 0.5 mM IB MX (Sigma #17018)) and spun at 240×g for 5 minutes. Cells were re-suspended in assay buffer at a batch-dependent optimized concentration (e.g. hCTR cells at 0.125×10^5 cells/mL, hAMYR3 cells at 0.125×10^5 cells/mL, rat CTR cells at 1×10^5 cells/mL, rat AMYR3 at 2×10^5 cells/mL).
(§3) The test peptide stock was prepared in DMSO and diluted in assay buffer to reach stated concentrations and transferred in duplicates into a 384-black shallow well microtitre assay plate (Corning #3676). Cells were added to the assay plate, incubated at room temperature for 30 minutes and the CAMP level measured using CAMP dynamic 2 HTRF kit (Cisbio, Cat #62AM4PEJ), following the two step protocol as per manufacturer's recommendations. The plates were read on an Envision (Perkin Elmer) using excitation wavelength of 320 nm and emission wavelengths of 620 nm & 665 nm.
(§4) Data was transformed to % Delta F as described in the manufacturer's guidelines and analyzed as percent activation of maximal amylin or calcitonin effect by 4-parameter logistic fit to determine EC50 values. The selectivity of a peptide to hAMYR vs hCTR is defined as a ratio of EC50 values at the two receptors.

[2] = molecular target: T2, human amylin receptor (calcitonin receptor co-expressed with receptor activity modifying protein, RAMP3) (hAMYR3) (Homo sapiens, UniProt O60896+P30988); assay: cAMP production in 1321N1 cells with stable recombinant expression of human amylin receptor (hAMYR3); type: cell-based
T2 construct: expressed in transfected cells
T2 sequence (P30988 25-474): T1 sequence (P30988 25-474)
T2 sequence (O60896 24-148 partner): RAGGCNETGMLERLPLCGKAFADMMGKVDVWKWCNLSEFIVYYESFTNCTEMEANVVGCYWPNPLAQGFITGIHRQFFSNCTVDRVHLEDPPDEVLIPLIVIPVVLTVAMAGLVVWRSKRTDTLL
Protocol: as §1, §2, §3, §4

lean rats = assay: Rat acute food intake study; type: in vivo, Sprague Dawley rats; details: 20 nmol/kg subcutaneously
Protocol: Male Sprague Dawley rats were obtained from Taconic Denmark, ApS at approximately 7 weeks of age. . . . Rats were implanted with a microchip for identification, housed 4/cage with enrichment, free access to food and water, and allowed one week acclimatisation while non-invasive characterization was performed. Rats were on a 12:12 light:dark cycle that switches at 1 pm:1 am. Food intake was monitored via the HM2 system (Lafayette Instrument) that allows for monitoring in a home cage. As each rat enters an access tunnel to feed, an IR beam is broken, and the implanted microchip is read. Resulting changes to food weight is then assigned to the specific animal. Social order has shown no impact to overall feeding patterns and amounts.
Rats were sorted into groups based on Day-1 body weight and 24-hour accumulated food intake (n=7 per group). On Day 0 rats were weighed, then fasted for 6 hours. Thirty (30) minutes prior to the reintroduction of food, rats were dosed subcutaneously (5 ml/kg) with 20 nmol/kg of test compound or 60 nmol/kg peptide 1 (pramlintide) diluted in an appropriate vehicle, after which food was returned, and lights went out. Automated food intake was monitored for the following 3 days, and rats were weighed once per day.
Food intake per rat was batched into 1-hour intervals and integrated into Gubra's GubraView data management system. Discrete food intake data was exported into MS Excel from which cumulative food intake data was generated. Cumulative food intake data was then transposed into GraphPad Prism (v8.0.1) for analysis of dark period feeding

[3] = Thioflavin T fibrillation assay; type: physicochemical; details: 1 mg/mL in 25 mM sodium acetate buffer pH 4.0, 37° C., 6 days, orbital shaking; >144 h = no increase
Method in brief: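 Peptides at 1 mg/mL in 25 mM sodium acetate pH 4.0 were mixed with ThT (0.25 mM stock) and held 6 days at 37 °C with intermittent orbital shaking at 500–750 rpm. Fluorescence (ex 444/em 480 nm) was read every 30 min, with buffer baseline correction and 5 replicates. Value: mean time to a detectable fluorescence increase.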

SMILES: CC[C@H](C)[C@H](NC(=O)[C@@H]1CCCN1C(=O)CNC(=O)[C@](C)(Cc1ccccc1)NC(=O)[C@H](CC(N)=O)NC(=O)[C@H](CC(N)=O)NC(=O)[C@H](CO)NC(=O)[C@H](CO)NC(=O)[C@H](Cc1c[nH]cn1)NC(=O)[C@H](CCCNC(=N)N)NC(=O)[C@H](CC(C)C)NC(=O)[C@H](Cc1ccccc1)NC(=O)[C@H](CC(N)=O)NC(=O)[C@H](C)NC(=O)[C@H](CC(C)C)NC(=O)[C@H](CCCNC(=N)N)NC(=O)[C@H](CCC(N)=O)NC(=O)[C@@H](NC(=O)[C@H](C)NC(=O)[C@@H]1CSSC[C@H](NC(=O)[C@@H](N)CCCCNC(=O)CC[C@H](NC(=O)CCCCCCCCCCCCCCCCC(=O)O)C(=O)O)C(=O)N[C@@H](CC(N)=O)C(=O)N[C@@H]([C@@H](C)O)C(=O)N[C@@H](C)C(=O)N[C@@H]([C@@H](C)O)C(=O)N1)[C@@H](C)O)C(=O)N[C@@H](CC(C)C)C(=O)N1CCC[C@H]1C(=O)N1CCC[C@H]1C(=O)N[C@H](C(=O)N[C@@H](CCC(=O)O)C(=O)N[C@H](C(=O)NCC(=O)N[C@@H](CO)C(=O)N[C@@H](CC(N)=O)C(=O)N[C@H](C(=O)N[C@@H](Cc1ccc(O)cc1)C(N)=O)[C@@H](C)O)C(C)C)[C@@H](C)O [Peptide 16, K(γE-C18diacid)[CNTATC]ATQRLANFLRHSSNN(αMePhe)GPILPPTEVGSNTY-amide] (H-K([γGlu-C18 diacid])CNTATCATQRLANFLRHSSNN[αMeF]GPILPPTEVGSNTY-NH2; disulfide 2-7; N-terminus assumed)
- EC50 [1]: 2.02 nM

SMILES: CC[C@H](C)[C@H](NC(=O)[C@@H]1CCCN1C(=O)CNC(=O)[C@H](Cc1ccccc1)NC(=O)[C@H](CC(N)=O)NC(=O)C(C)(C)NC(=O)[C@H](CO)NC(=O)[C@H](CO)NC(=O)[C@H](Cc1c[nH]cn1)NC(=O)[C@@H](NC(=O)[C@H](CC(C)C)NC(=O)[C@H](Cc1ccccc1)NC(=O)[C@H](CC(N)=O)NC(=O)[C@H](C)NC(=O)[C@H](CC(C)C)NC(=O)[C@H](CCCNC(=N)N)NC(=O)[C@H](CCC(N)=O)NC(=O)[C@@H](NC(=O)[C@H](C)NC(=O)[C@@H]1CSSC[C@H](NC(=O)[C@@H](N)CCCCNC(=O)CC[C@H](NC(=O)CC[C@H](NC(=O)CCCCCCCCCCCCCCCCC(=O)O)C(=O)O)C(=O)O)C(=O)N[C@@H](CC(N)=O)C(=O)N[C@@H]([C@@H](C)O)C(=O)N[C@@H](C)C(=O)N[C@@H]([C@@H](C)O)C(=O)N1)[C@@H](C)O)C(C)C)C(=O)N[C@@H](CC(C)C)C(=O)N1CCC[C@H]1C(=O)N1CCC[C@H]1C(=O)N[C@H](C(=O)NC(C)(C)C(=O)N[C@H](C(=O)NCC(=O)N[C@@H](CO)C(=O)N[C@@H](CC(N)=O)C(=O)N[C@H](C(=O)N[C@@H](Cc1ccc(O)cc1)C(N)=O)[C@@H](C)O)C(C)C)[C@@H](C)O [Peptide 89, K(γE-γE-C18diacid)[CNTATC]ATQRLANFLVHSS(Aib)NFGPILPPT(Aib)VGSNTY-amide] (H-K([γGlu-γGlu-C18 diacid])CNTATCATQRLANFLVHSS[Aib]NFGPILPPT[Aib]VGSNTY-NH2; disulfide 2-7; N-terminus assumed)
- Ratio (selectivity hAMYR vs hCTR, ratio of EC50 values at the two receptors) ([2]; EC50 hCTR / EC50 hAMYR3): 18

SMILES: CC[C@H](C)[C@H](NC(=O)[C@H](C)NC(=O)[C@@H]1CCCN1C(=O)[C@H](Cc1ccccc1)NC(=O)[C@H](CC(N)=O)NC(=O)C(C)(C)NC(=O)[C@H](CO)NC(=O)[C@H](CO)NC(=O)[C@H](Cc1c[nH]cn1)NC(=O)[C@@H](NC(=O)[C@H](CC(C)C)NC(=O)[C@H](Cc1ccccc1)NC(=O)[C@H](CC(N)=O)NC(=O)[C@H](C)NC(=O)[C@H](CC(C)C)NC(=O)[C@H](CCCNC(=N)N)NC(=O)[C@H](CCC(N)=O)NC(=O)[C@@H](NC(=O)[C@H](C)NC(=O)[C@@H]1CSSC[C@H](NC(=O)[C@@H](N)CCCCNC(=O)CC[C@H](NC(=O)CC[C@H](NC(=O)CCCCCCCCCCCCCCCCCCC(=O)O)C(=O)O)C(=O)O)C(=O)N[C@@H](CC(N)=O)C(=O)N[C@@H]([C@@H](C)O)C(=O)N[C@@H](C)C(=O)N[C@@H]([C@@H](C)O)C(=O)N1)[C@@H](C)O)C(C)C)C(=O)N[C@@H](CC(C)C)C(=O)N[C@@H](CO)C(=O)N1CCC[C@H]1C(=O)N[C@H](C(=O)N[C@@H](CC(N)=O)C(=O)N[C@H](C(=O)NCC(=O)N[C@@H](CO)C(=O)N[C@@H](CCN)C(=O)N[C@H](C(=O)N[C@@H](Cc1ccc(O)cc1)C(N)=O)[C@@H](C)O)C(C)C)[C@@H](C)O [Peptide 125, K(γE-γE-C20diacid)[CNTATC]ATQRLANFLVHSS(Aib)NFPAILSPTNVGS(Dab)TY-amide] (H-K([γGlu-γGlu-C20 diacid])CNTATCATQRLANFLVHSS[Aib]NFPAILSPTNVGS[Dab]TY-NH2; disulfide 2-7 (inferred))
- EC50 ([2]; cAMP production, 1321N1 cells expressing human amylin3 receptor): 1.2 nM

SMILES: CC[C@H](C)[C@H](NC(=O)[C@@H]1CCCN1C(=O)CNC(=O)[C@H](Cc1ccccc1)NC(=O)[C@H](CC(N)=O)NC(=O)[C@H](CC(N)=O)NC(=O)[C@H](CO)NC(=O)[C@H](CO)NC(=O)[C@H](Cc1c[nH]cn1)NC(=O)C(C)(C)NC(=O)[C@H](CC(C)C)NC(=O)[C@H](Cc1ccccc1)NC(=O)[C@H](CC(N)=O)NC(=O)[C@H](C)NC(=O)[C@H](CC(C)C)NC(=O)[C@H](CCCNC(=N)N)NC(=O)[C@H](CCC(N)=O)NC(=O)[C@@H](NC(=O)[C@H](C)NC(=O)[C@@H]1CSSC[C@H](NC(=O)[C@H](CCCCN)NC(=O)[C@@H](N)CCCCNC(=O)CC[C@H](NC(=O)CCCCCCCCCCCCCCCCC(=O)O)C(=O)O)C(=O)N[C@@H](CC(N)=O)C(=O)N[C@@H]([C@@H](C)O)C(=O)N[C@@H](C)C(=O)N[C@@H]([C@@H](C)O)C(=O)N1)[C@@H](C)O)C(=O)N[C@@H](CC(C)C)C(=O)N1CCC[C@H]1C(=O)N1CCC[C@H]1C(=O)N[C@H](C(=O)N[C@@H](CC(N)=O)C(=O)N[C@H](C(=O)NCC(=O)N[C@@H](CO)C(=O)N[C@@H](CC(N)=O)C(=O)N[C@H](C(=O)N[C@@H](Cc1ccc(O)cc1)C(N)=O)[C@@H](C)O)C(C)C)[C@@H](C)O [Peptide 129] (H-K([γGlu-C18 diacid])KCNTATCATQRLANFL[Aib]HSSNNFGPILPPTNVGSNTY-NH2; disulfide 3-8; N-terminus assumed)
- Cummulative food intake (% vehicle treated intake) At 12 h (lean rats; at 12 h): 29 % vehicle treated intake
- Cummulative food intake (% vehicle treated intake) At 48 h (lean rats; at 48 h): 51 % vehicle treated intake
- Time taken to detect increase in fluorescence intensity [3]: >144 h
